Results as given in ChEMBL document CHEMBL1156828, “Pyridinylquinoxalines and pyridinylpyridopyrazines as lead compounds for novel p38 alpha mitogen-activated protein kinase inhibitors” (J Med Chem, 2010).
pIC50: −log10 of the molar value.

Molecular target: T1, Mitogen-activated protein kinase 14 (Homo sapiens, UniProt Q16539)
Assay: Inhibition of p38alpha-mediated ATF2 phosphorylation in presence of ATP

T1 sequence (Q16539 whole entry): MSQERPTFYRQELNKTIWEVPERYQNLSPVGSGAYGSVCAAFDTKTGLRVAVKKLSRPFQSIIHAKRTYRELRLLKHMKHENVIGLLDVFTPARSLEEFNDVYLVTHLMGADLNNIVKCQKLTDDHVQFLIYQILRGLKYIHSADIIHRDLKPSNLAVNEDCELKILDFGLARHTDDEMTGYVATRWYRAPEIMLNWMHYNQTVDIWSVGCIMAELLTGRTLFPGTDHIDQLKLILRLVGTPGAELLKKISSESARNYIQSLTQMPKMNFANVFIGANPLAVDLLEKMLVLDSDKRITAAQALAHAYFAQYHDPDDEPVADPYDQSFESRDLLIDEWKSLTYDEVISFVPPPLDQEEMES

In order of falling pIC50:
1. CC(C)Nc1cc(-c2nc3cccnc3nc2-c2ccc(F)cc2)ccn1  7.42
2. CC(C)Nc1cc(-c2nc3ccccc3nc2-c2ccc(F)cc2)ccn1  7.09
3. CCC(C)Nc1cc(-c2nc3ccccc3nc2-c2ccc(F)cc2)ccn1 (stereo not given)  6.94
4. O[C@H]1CC[C@H](Nc2cc(-c3nc4ccccc4nc3-c3ccc(F)cc3)ccn2)CC1  6.68
5. Cc1cc2nc(-c3ccc(F)cc3)c(-c3ccnc(NC(C)C)c3)nc2cc1C  6.62
6. Cc1cc2nc(-c3ccc(F)cc3)c(-c3ccnc(N[C@H]4CC[C@H](O)CC4)c3)nc2cc1C  6.59
7. CC(C)Nc1cc(-c2nc3ncccc3nc2-c2ccc(F)cc2)ccn1  6.48
8. CC(C)Nc1cc(-c2nc3cc(Cl)c(Cl)cc3nc2-c2ccc(F)cc2)ccn1  6.39
9. C[C@H](Nc1cc(-c2nc3ccccc3nc2-c2ccc(F)cc2)ccn1)c1ccccc1  6.37
10. CC(C)[C@H](C)Nc1cc(-c2nc3ccccc3nc2-c2ccc(F)cc2)ccn1  6.24
11. CCC(C)Nc1cc(-c2nc3cc(C)c(C)cc3nc2-c2ccc(F)cc2)ccn1 (stereo not given)  6.23
12. O[C@H]1CC[C@H](Nc2cc(-c3nc4cc(Cl)c(Cl)cc4nc3-c3ccc(F)cc3)ccn2)CC1  6.22
13. CC(C)CNc1cc(-c2nc3ccccc3nc2-c2ccc(F)cc2)ccn1  6.19
14. CC(Nc1cc(-c2nc3ccccc3nc2-c2ccc(F)cc2)ccn1)c1ccccc1 (stereo not given)  6.14
15. CC(C)C(C)Nc1cc(-c2nc3ccccc3nc2-c2ccc(F)cc2)ccn1 (stereo not given)  6.10
16. Cc1cc2nc(-c3ccc(F)cc3)c(-c3ccnc(NC(C)C(C)C)c3)nc2cc1C (stereo not given)  5.86
17. Cc1cc2nc(-c3ccc(F)cc3)c(-c3ccnc(NCc4ccccc4)c3)nc2cc1C  5.82
18. CC(C)[C@@H](C)Nc1cc(-c2nc3ccccc3nc2-c2ccc(F)cc2)ccn1  5.80
19. Fc1ccc(-c2nc3ncccc3nc2-c2ccncc2)cc1  5.50
20. Fc1ccc(-c2nc3ccccc3nc2-c2ccncc2)cc1  5.50
21. Cc1cc2nc(-c3ccncc3)c(-c3ccc(F)cc3)nc2cc1C  5.43
22. C[C@@H](Nc1cc(-c2nc3ccccc3nc2-c2ccc(F)cc2)ccn1)c1ccccc1  5.32
23. COc1ccc2nc(-c3ccncc3)c(-c3ccc(F)cc3)nc2c1  5.21
24. CC(C)C(C)Nc1cc(-c2nc3cc(Cl)c(Cl)cc3nc2-c2ccc(F)cc2)ccn1 (stereo not given)  5.02

Molecular target: T1, Mitogen-activated protein kinase 14
Assay: Inhibition of p38alpha-mediated ATF2 phosphorylation at 10 uM in presence of ATP

In order of rising inhibition:
1. Fc1ccc(-c2nc3ccccc3nc2-c2ccnc(NCc3ccccc3)c2)cc1  9%
2. COc1ccc2nc(-c3ccc(F)cc3)c(-c3ccncc3)nc2c1  33%
3. Fc1ccc(-c2nc3cc(Cl)c(Cl)cc3nc2-c2ccnc(NCc3ccccc3)c2)cc1  37%
4. Fc1ccc(-c2nc3cc(Cl)c(Cl)cc3nc2-c2ccncc2)cc1  39%
5. Fc1ccc(-c2nc3cccnc3nc2-c2ccncc2)cc1  46%

Molecular target: Mitogen-activated protein kinase 10 (Homo sapiens, UniProt P53779)
Sequence (P53779 whole entry): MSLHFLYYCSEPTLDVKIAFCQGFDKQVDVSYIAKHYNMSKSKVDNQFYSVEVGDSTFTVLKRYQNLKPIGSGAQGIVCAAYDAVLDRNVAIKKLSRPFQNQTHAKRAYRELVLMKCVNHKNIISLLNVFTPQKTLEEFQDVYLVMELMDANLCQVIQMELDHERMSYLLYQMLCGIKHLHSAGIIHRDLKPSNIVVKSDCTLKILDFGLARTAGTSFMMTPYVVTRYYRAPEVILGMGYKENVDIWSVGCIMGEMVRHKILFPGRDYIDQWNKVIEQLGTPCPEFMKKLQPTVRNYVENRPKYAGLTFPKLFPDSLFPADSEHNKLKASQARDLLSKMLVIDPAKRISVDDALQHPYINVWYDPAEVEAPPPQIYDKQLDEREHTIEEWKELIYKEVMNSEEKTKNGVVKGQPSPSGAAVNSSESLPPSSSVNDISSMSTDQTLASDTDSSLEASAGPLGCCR
Assay: Inhibition of JNK3 by nonradioactive JNK3 assay

With CC(C)Nc1cc(-c2nc3ccccc3nc2-c2ccc(F)cc2)ccn1 the pIC50 was 5.40.
